Target: T1, human PAH with the R408W mutation (Homo sapiens, UniProt P00439, R408W)
T1 construct: expressed in transfected cells
T1 sequence (P00439 1-452 R408W): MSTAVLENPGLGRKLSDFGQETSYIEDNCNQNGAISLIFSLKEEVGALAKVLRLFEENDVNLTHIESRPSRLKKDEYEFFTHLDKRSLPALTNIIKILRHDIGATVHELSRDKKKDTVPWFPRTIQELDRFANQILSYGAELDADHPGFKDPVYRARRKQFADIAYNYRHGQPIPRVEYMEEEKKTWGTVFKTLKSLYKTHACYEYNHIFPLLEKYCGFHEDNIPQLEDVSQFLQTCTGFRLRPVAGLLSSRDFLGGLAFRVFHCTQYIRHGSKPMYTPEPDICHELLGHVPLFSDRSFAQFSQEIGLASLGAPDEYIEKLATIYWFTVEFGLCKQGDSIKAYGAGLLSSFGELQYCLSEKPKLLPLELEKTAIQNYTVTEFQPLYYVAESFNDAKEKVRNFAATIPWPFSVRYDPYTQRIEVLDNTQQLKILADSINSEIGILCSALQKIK
Experiment: Cell Based Phenylalanine Flux Assay
Settings: A375 cells expressing human R408W PAH; 24 hrs compound incubation; 13C-Tyrosine by LC-MS; average where tested multiple times; read-out: AC50

SMILES	AC50 [nM]
O=C(c1oc(-c2ccccn2)nc1C(F)F)N1CCc2[nH]cnc2[C@@H]1c1nc2c(F)cccc2s1 [Example 1797, (R)-(4-(difluoromethyl)-2-(pyridin-2-yl)oxazol-5-yl)(4-(4-fluorobenzo[d]thiazol-2-yl)-6,7-dihydro-1H-imidazo[4,5-c]pyridin-5(4H)-yl)methanone]	< 500
O=C(c1oc(-c2ccccn2)nc1C(F)F)N1CCc2[nH]cnc2[C@H]1c1nc2c(F)cccc2s1 [Example 1798, (S)-(4-(difluoromethyl)-2-(pyridin-2-yl)oxazol-5-yl)(4-(4-fluorobenzo[d]thiazol-2-yl)-6,7-dihydro-1H-imidazo[4,5-c]pyridin-5(4H)-yl)methanone]	< 500
Cn1cc(-c2nc(C(F)F)c(C(=O)N3CCc4[nH]cnc4[C@H]3c3nc4ccccc4s3)o2)cn1 [Example 1799]	< 500
O=C(c1nnc(-c2ccc(F)c(F)c2)o1)N1CCc2[nH]cnc2[C@H]1c1nc2ccccc2s1 [Example 1801]	< 500
O=C(c1nnc(-c2ccc(F)c(F)c2)o1)N1CCc2[nH]cnc2[C@@H]1c1nc2ccccc2s1 [Example 1802, (R)-(4-(benzo[d]thiazol-2-yl)-6,7-dihydro-1H-imidazo[4,5-c]pyridin-5(4H)-yl)(5-(3,4-difluorophenyl)-1,3,4-oxadiazol-2-yl)methanone]	1000 to 5000
Cn1nc(C(F)F)cc1C(=O)N1CCc2[nH]cnc2[C@H]1c1nc2ccccc2s1 [Example 1803]	< 500
Cn1nc(C(F)F)cc1C(=O)N1CCc2[nH]cnc2[C@@H]1c1nc2ccccc2s1 [Example 1804, (R)-(4-(benzo[d]thiazol-2-yl)-6,7-dihydro-1H-imidazo[4,5-c]pyridin-5(4H)-yl)(3-(difluoromethyl)-1-methyl-1H-pyrazol-5-yl)methanone]	1000 to 5000
Cn1ccc(-c2nnc(C(=O)N3CCc4[nH]cnc4[C@H]3c3nc4ccccc4s3)o2)n1 [Example 1805]	< 500
Cn1ccc(-c2nnc(C(=O)N3CCc4[nH]cnc4[C@@H]3c3nc4ccccc4s3)o2)n1 [Example 1806, (R)-(4-(benzo[d]thiazol-2-yl)-6,7-dihydro-1H-imidazo[4,5-c]pyridin-5(4H)-yl)(5-(1-methyl-1H-pyrazol-3-yl)-1,3,4-oxadiazol-2-yl)methanone]	1000 to 5000
COCc1nc(C(F)F)c(C(=O)N2CCc3[nH]cnc3[C@H]2c2nc3ccccc3s2)o1 [Example 1807]	< 500
COCc1nc(C(F)F)c(C(=O)N2CCc3[nH]cnc3[C@@H]2c2nc3ccccc3s2)o1 [Example 1808, (R)-(4-(benzo[d]thiazol-2-yl)-6,7-dihydro-1H-imidazo[4,5-c]pyridin-5(4H)-yl)(4-(difluoromethyl)-2-(methoxymethyl)oxazol-5-yl)methanone]	1000 to 5000
CC(C)(O)c1nc(C(F)F)c(C(=O)N2CCc3[nH]cnc3[C@H]2c2nc3ccccc3s2)o1 [Example 1809]	< 500
CC(C)(O)c1nc(C(F)F)c(C(=O)N2CCc3[nH]cnc3[C@@H]2c2nc3ccccc3s2)o1 [Example 1810, (R)-(4-(benzo[d]thiazol-2-yl)-6,7-dihydro-1H-imidazo[4,5-c]pyridin-5(4H)-yl)(4-(difluoromethyl)-2-(2-hydroxypropan-2-yl)oxazol-5-yl)methanone]	1000 to 5000

Second part, the compound after the results:

AC50 [nM]	SMILES
< 500	O=C(c1nnc(-c2ccc(F)cc2F)o1)N1CCc2[nH]cnc2[C@H]1c1nc2ccccc2s1 [Example 1811]
500 to 1000	O=C(c1nnc(-c2ccc(F)cc2F)o1)N1CCc2[nH]cnc2[C@@H]1c1nc2ccccc2s1 [Example 1812, (R)-(4-(benzo[d]thiazol-2-yl)-6,7-dihydro-1H-imidazo[4,5-c]pyridin-5(4H)-yl)(5-(2,4-difluorophenyl)-1,3,4-oxadiazol-2-yl)methanone]
500 to 1000	Cn1ncnc1C(=O)N1CCc2[nH]cnc2[C@H]1c1nc2ccccc2s1 [Example 1813]
> 5000	Cn1ncnc1C(=O)N1CCc2[nH]cnc2[C@@H]1c1nc2ccccc2s1 [Example 1814, (R)-(4-(benzo[d]thiazol-2-yl)-6,7-dihydro-1H-imidazo[4,5-c]pyridin-5(4H)-yl)(1-methyl-1H-1,2,4-triazol-5-yl)methanone]
1000 to 5000	O=C(c1cc(C(F)(F)F)n[nH]1)N1CCc2[nH]cnc2[C@@H]1c1nc2c(F)cccc2s1 [Example 1815, (R)-(4-(4-fluorobenzo[d]thiazol-2-yl)-6,7-dihydro-1H-imidazo[4,5-c]pyridin-5(4H)-yl)(3-(trifluoromethyl)-1H-pyrazol-5-yl)methanone]
1000 to 5000	O=C(c1cc(C(F)(F)F)n[nH]1)N1CCc2[nH]cnc2[C@H]1c1nc2c(F)cccc2s1 [Example 1816, (S)-(4-(4-fluorobenzo[d]thiazol-2-yl)-6,7-dihydro-1H-imidazo[4,5-c]pyridin-5(4H)-yl)(3-(trifluoromethyl)-1H-pyrazol-5-yl)methanone]
< 500	O=C(c1ccnn1C(F)F)N1CCc2[nH]cnc2[C@H]1c1nc2ccccc2s1 [Example 1817]
1000 to 5000	O=C(c1ccnn1C(F)F)N1CCc2[nH]cnc2[C@@H]1c1nc2ccccc2s1 [Example 1818, (R)-(4-(benzo[d]thiazol-2-yl)-6,7-dihydro-1H-imidazo[4,5-c]pyridin-5(4H)-yl)(1-(difluoromethyl)-1H-pyrazol-5-yl)methanone]
500 to 1000	Cn1ncc(C(=O)N2CCc3[nH]cnc3[C@H]2c2nc3ccccc3s2)c1C(F)F [Example 1819]
> 5000	Cn1ncc(C(=O)N2CCc3[nH]cnc3[C@@H]2c2nc3ccccc3s2)c1C(F)F [Example 1820, (R)-(4-(benzo[d]thiazol-2-yl)-6,7-dihydro-1H-imidazo[4,5-c]pyridin-5(4H)-yl)(5-(difluoromethyl)-1-methyl-1H-pyrazol-4-yl)methanone]
< 500	Cn1cc(C(=O)N2CCc3[nH]cnc3[C@H]2c2nc3ccccc3s2)c(C(F)F)n1 [Example 1821]
1000 to 5000	Cn1cc(C(=O)N2CCc3[nH]cnc3[C@@H]2c2nc3ccccc3s2)c(C(F)F)n1 [Example 1822, (R)-(4-(benzo[d]thiazol-2-yl)-6,7-dihydro-1H-imidazo[4,5-c]pyridin-5(4H)-yl)(3-(difluoromethyl)-1-methyl-1H-pyrazol-4-yl)methanone]
1000 to 5000	O=C(c1nnc(-c2cnn(C(F)F)c2)o1)N1CCc2[nH]cnc2[C@@H]1c1nc2c(F)cccc2s1 [Example 1823, (R)-(5-(1-(difluoromethyl)-1H-pyrazol-4-yl)-1,3,4-oxadiazol-2-yl)(4-(4-fluorobenzo[d]thiazol-2-yl)-6,7-dihydro-1H-imidazo[4,5-c]pyridin-5(4H)-yl)methanone]
< 500	O=C(c1nnc(-c2cnn(C(F)F)c2)o1)N1CCc2[nH]cnc2[C@H]1c1nc2c(F)cccc2s1 [Example 1824, (S)-(5-(1-(difluoromethyl)-1H-pyrazol-4-yl)-1,3,4-oxadiazol-2-yl)(4-(4-fluorobenzo[d]thiazol-2-yl)-6,7-dihydro-1H-imidazo[4,5-c]pyridin-5(4H)-yl)methanone]
500 to 1000	Cn1ccc(-c2nnc(C(=O)N3CCc4[nH]cnc4[C@@H]3c3nc4c(F)cccc4s3)o2)n1 [Example 1825, (R)-(4-(4-fluorobenzo[d]thiazol-2-yl)-6,7-dihydro-1H-imidazo[4,5-c]pyridin-5(4H)-yl)(5-(1-methyl-1H-pyrazol-3-yl)-1,3,4-oxadiazol-2-yl)methanone]

Reference: patent US20250171438A1 (Agios Pharmaceuticals, Inc., priority 2022, published 2025)
